{"source": "paper PMC9437101", "about": "“Curcumin-based-fluorescent probes targeting ALDH1A3 as a promising tool for glioblastoma precision surgery and early diagnosis” (Communications Biology, 2022)", "key": {"[1]": {"tested_on": "U87MG, 3054, 3060, HEK293T, 4T1, human fetal astrocytes", "assay": "Cell viability (MTT assay), all cell lines of Fig. 6a", "assay_type": "cell-based", "details": "10 µM, 72 h", "protocol": "In total, 10 × 10^5 U87MG human glioblastoma, patient-derived glioma cells 3054 and 3060, HEK293T human embryonic kidney, 4T1 murine mammary carcinoma, human fetal astrocytes cell lines were plated in their respective medium and treated for 72 h with our fluorescent probe 10 and 11, solubilized in DMSO in a final concentration of […]. We treated controls with DMSO in the same final concentration and we compared the viability of each treatment to controls. The viability of cells was measured using the 3-(4,5-dimethylthiazol-2-yl)-2,5-diphenyltetrazolium assay (MTT assay)[23]."}, "[2]": {"assay": "LC-HRMS analysis, enzymatic assay buffer + probe without enzyme", "details": "1 h", "protocol": "These analyses were carried out by using UPLC-HRMS procedure with Vanquish UPLC system coupled to a Thermo Scientific Q-Exactive Plus, operating in negative electrospray ionization mode. The chromatographic separation was carried out using a Phenomenex Synergi 4 µ Polar-RP 80 A (150 × 2 mm) equipped with a Phenomenex Polar-RP (4 mm × 2 mm) security guard column. The mobile phase consisted of A: acetonitrile 0.1% formic acid and B: 0.1% formic acid. We used a linear elution gradient, starting from 80% of A to 5% A in 3 min, 3 min at 5% A, an equilibration of 4 min for a total run time of 10.00 min, at 300 µl/min flow rate. The autosampler temperature was set at 15 °C, the injection volume was 5 µl and column was maintained at 40 °C. […] Before injecting the samples, the blanks in the list were analyzed and every biological sample was analyzed in duplicate. The biological samples analyzed were as follow: (1) Enzymatic assay Buffer; (2) Enzymatic assay Buffer + NAD^+; (3) Enzymatic assay Buffer + Probe 10 or Probe 11; (4) Enzymatic assay Buffer + ALDH1A1; (5) Enzymatic assay Buffer + ALDH1A2; (6) Enzymatic assay Buffer + ALDH1A3; (7) Enzymatic assay Buffer + ALDH1A1 + Probe 10 or Probe 11; (8) Enzymatic assay Buffer + ALDH1A2 + Probe 10 or Probe 11; (9) Enzymatic assay Buffer + ALDH1A3 + Probe 10 or Probe 11. […]"}}, "note": "“And” between values parts separate entries of the source, which are not always exact repeats. Identical values can stand only once.", "data": [{"smiles": "COc1cc(/C=C/C(O)=C/C(=O)/C=C/c2ccc(OCc3cn(CCOc4ccc(C=O)cc4)nn3)c(OC)c2)ccc1O", "note": "[Probe 10]", "values": [{"measurement": "cell mortality", "setting": "[1]", "value": "unable to induce cell mortality"}, {"measurement": "AREA TIC of Probe 10", "setting": "[2]", "value": "9480149 and 10113371 and 16727419 and 14473716"}]}]}
